In the METLIN SMRT retention time set (Domingo-Almenara et al. 2019) one finds RP-LC retention time data, which are given here for 32 compounds.

The data set in a line: gradient 5% acetonitrile 3 min, to 50% in 2 min, to 85% in 15 min, held 3 min, 100 µL/min. To be noted: column: Zorbax Extend-C18 2.1 x 50 mm; eluents: water / acetonitrile, 0.1% formic acid. The method in brief: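 The system's dead and dwell volumes were 40 μL and 900 μL, with a Zorbax Extend-C18 column (2.1 × 50 mm, 1.8 μm) run at 100 μL/min in water and acetonitrile containing 0.1% formic acid each. Pure standards were analyzed in mixtures of ~100 molecules by HPLC–quadrupole time-of-flight mass spectrometry in positive and negative ionization mode. Retention time was assigned from computationally picked, manually inspected adduct peaks.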
Compound `COc1ccc(CN(Cc2cc(=O)n3ccccc3n2)CC(C)C)cc1OC` came in with an RP-LC retention time of 615 s.
The value for `O=C(Nc1ccc(Cl)c([N+](=O)[O-])c1)Nc1nc2ccccc2s1` was 1050 s; that for `O=C(NCCC1=CCCCC1)C1CCCN(c2nc3ccsc3c(=O)n2Cc2ccc(F)cc2)C1` (configuration not stated) was 1090 s; that for `COc1ccccc1-c1nnc(-c2cc(S(=O)(=O)N3CCCCCC3)ccc2Cl)o1` was 1130 s.
The compound `CCn1cnc(S(=O)(=O)N2CCCC(C(=O)Nc3ccc(Br)c(C)c3)C2)c1` (configuration not stated) had an RP-LC retention time of 889 s.
On to `Cn1c(N2CCC(C(=O)N3CCC(Cc4ccccc4)CC3)CC2)cc(=O)n(C)c1=O`, for which the RP-LC retention time came out at 824 s.
In turn, `O=C(N[C@H]1C[C@@H]2C[C@H]1CN2S(=O)(=O)c1cccnc1)c1ccccc1` came in with an RP-LC retention time of 697 s.
Turning to `O=C(Cc1ccccc1Br)NC1CCN(c2cc(-c3cccs3)[nH]n2)C1` (configuration not stated), the RP-LC retention time was determined as 689 s.
For `Cc1ccc(Cn2c(N3CCCC(C(=O)Nc4ccc(C)cc4)C3)nc3ccsc3c2=O)cc1` (configuration not stated) the value was 1080 s.
For `CCN(CC)CCNC(=O)C(C)n1c(=O)c(C(F)(F)F)nc2ccccc21` (configuration not stated) the value was 669 s; for `O=C(NCc1cccs1)C1CCCN(c2nc3ccsc3c(=O)n2-c2ccccc2)C1` (configuration not stated), 816 s.
The value for `CCC(C)N(CCNC(=O)Cn1c(=O)oc2ccccc21)Cc1ccco1` (configuration not stated) was 631 s; that for `CCS(=O)(=O)c1ccc(-c2ccc(NC(=O)Cc3ccc(F)cc3)cc2)nn1` was 764 s; that for `CCOc1cccc(-c2noc(Cn3cnc4c(cnn4-c4ccc(OC)cc4)c3=O)n2)c1` was 1090 s.
`CC(C)(C)CC(=O)N1CCN(c2nc(CN3CCOCC3)cs2)CC1` gave an RP-LC retention time of 611 s.
For `Cc1cccc2c(C(=O)NC3CC3)cc(N(C)C)nc12` the value was 588 s; for `Cc1noc(C)c1CC(=O)NCC1Cn2cccc2C(=O)N1C` (configuration not stated), 598 s.
`O=C(NCCCN1CCCC1=O)C(=O)NCCC1=CCCCC1` had an RP-LC retention time of 686 s.
The value for `CCCN(CC1CCOC1)C(=O)c1ccc(F)cc1F` (configuration not stated) was 743 s; that for `Cc1cccc(Nc2c(-c3ccc4c(c3)OCO4)nc3cnccn23)c1C` was 928 s.
For `Cc1ccc2c(Cl)c(C(=O)N3CCN(c4ccccn4)CC3)sc2c1` the value was 726 s.
The value for `O=S(=O)(NCc1ccccc1F)c1ccccc1-c1nc(-c2cccc(F)c2)no1` was 1170 s; that for `O=C(Nc1cc(Cl)ccc1F)c1cnc(-c2ccc(F)cc2)nc1-c1ccncc1` was 1050 s; that for `Cc1c(CC(=O)NC(C)C)c(=O)n2nc(-c3ccccc3)nc2n1C` was 673 s.
`Cc1cc(=O)n2nc(-c3ccc(Cl)cc3)nc2n1CC(=O)N1CCN(c2ccc(F)cc2)CC1` came in with an RP-LC retention time of 933 s.
In turn, `CCn1cc(C(=O)Nc2ccc(Cl)cc2)c(S(=O)(=O)N2CCSCC2)n1` came in with an RP-LC retention time of 892 s.
The value for `Cc1ccccc1NC(=O)N1C[C@@H](F)C[C@H]1C(=O)N1CCc2ccccc2C1` was 780 s; that for `Cc1noc([C@@H]2CN(C(=O)c3ccc(Cn4ccnc4)o3)C[C@H]2C(N)=O)n1` was 538 s.
For `CCc1nc2nccc(-c3ccc(OC)cc3F)n2n1` the value was 778 s; for `COc1ccc(CN2CC[C@]3(CO)CN(Cc4ccccc4)C[C@@H]3C2)c(Cl)c1OC`, 579 s.
The value for `CCn1cc(SCC(=O)Nc2c(C)cc(C)cc2C)c2ccccc21` was 998 s; that for `CN1C(=O)c2cc(S(=O)(=O)Nc3ccc(Cl)cc3)ccc2Oc2cccnc21` was 950 s.
